Assay results as given in EP0934745B1, “Use of androsterone derivatives for inhibiting DNA binding of ap-1 and airway smooth muscle proliferation” (CHARLOTTE-MECKLENBURG HOSPITAL doing business as Carolinas …, priority 1998, dated 1999).

Experiments:
[1] = biological target: T1, glucose-6-phosphate dehydrogenase (G6PDH) (Rattus norvegicus, UniProt P05370); test: G6PDH activity in airway smooth muscle cell lysates, inhibitors added to the lysate; type: biochemical; settings: 100 µl, read-out: PERCENT INHIBITION OF GLUCOSE 6-PHOSPHATE DEHYDROGENASE ACTIVITY
T1 construct: endogenous in cells; host or cells: primary rat tracheal (airway) smooth muscle cells
Procedure: (§1) After 1 hour cells were lysed and G6PDH activity was assayed as described below. In other experiments, G6PDH activity was measured in cell lysates prepared from untreated confluent cultures and treated in vitro with DHEA or 16α-BrEA added to the reaction mixture in 5 µl DMSO. […] Ribonucleosides or deoxyribonucleosides were dissolved in 0.5 ml of 1 N HCl and added to DMEM. The pH of the medium was adjusted to 7.1 by titration with 1 N NaOH, and medium was then sterilized by passage through a […] filter. Growth was measured by MTT reduction after 24, 48 and 96 hours.
To determine if DHEA or its analogs induced programmed cell death, confluent cultures in 6 well plastic plates were treated with 50 or 250 µM DHEA, 10 or 50 µM 16α-BrEA, or vehicle (25 µl DMSO). After 2 hours cells were washed twice with DPBS and scraped on ice into 1.5 ml microfuge tubes and centrifuged 250 g for 5 minutes at 4°C. The cell pellet was gently resuspended in 30 µl DPBS and lysed by addition of 30 µl lysis buffer (80 mM EDTA, 1.6% [wt/vol] sodium lauryl sarcosinate and 5 mg/ml proteinase K in 200 mM Tris-HCl buffer, pH 8.0). Lysate was incubated at 50°C for 1.5 hours. RNAse A (0.2 mg/ml) was added and the lysate was incubated for another 30 minutes at 37°C. DNA bands were separated along with a DNA ladder standard on a 1% agarose gel at 60 V for 1 hour, intercalated with ethidium bromide, and visualized and photographed under ultraviolet light. Measurement of Glucose-6-Phosphate Dehydrogenase Activity. Cultures were washed three times with cold DPBS on ice, scraped into ice cold buffer (10 mM MgCl2 in 50 mM Tris, pH 8.0) and sonicated on ice. G6PDH activity was then assayed by the method of Jones and Andrews (Jones, J.T., and Andrews, S.G., "Glucose-6-phosphate dehydrogenase activity in somatic and germinal cells of the mouse testis," J. Reproduc. Fertility, 54, 357-362 (1978)) in a reaction mixture containing 50-200 µl cell lysate, 20 µl of 10 mM β-nicotinamide adenine dinucleotide phosphate (NADP) and 20 µl of 10 mM D-glucose-6-phosphate (G6P) in a total volume of 1 ml buffer (10 mM MgCl2 in 50 mM Tris, pH 8.0). The reaction was initiated by addition of G6P. The linear increase in absorbance at 340 nm was monitored at 25°C for 300 seconds. Activity was expressed as units/mg protein, where 1.0 unit will oxidase 1.0 µmole of G6P to 6-phospho-D-gluconate per min in the presence of NADP. Protein was measured using the BCA protein assay (Rockford, IL). Immunoblot Assay for p21^ras and c-fos Proteins. For measurement of p21^ras, cells were washed twice-with cold DPBS and swelled on ice for 15 minutes with 500 µl cold lysis buffer (10 mM HEPES, 1 mM MgCl2, 1 mM EDTA, 1 µM pepstatin, 2 µg/ml aprotinin, and 1 mM phenylmethylsulfonyl fluoride). See Schulz and Nyce (1991), supra. Cells were then scraped into 1.5 ml polypropylene tubes, homogenized and clarified by centrifugation at 3,000 g for 1 minute at 4°C. The postnuclear supernatant was centrifuged 100,000 g for 30 minutes at 4°C. Supernatants were collected and pelleted membranes were resuspended in detergent buffer (1% Triton X-100, 1% sodium deoxycholate, 0.1% SDS, 150 mM NaCl, 1 µM pepstatin, 2 µg/ml aprotinin and 1 mM phenylmethylsulfonyl fluoride in 25 mM Tris, pH 7.4). Aliquots of supernatant and membrane fractions were removed for protein determination using the BCA protein assay. […]
Activity is expressed as % inhibition of DMSO vehicle-treated controls by 16α-bromoepiandrosterone (BrEA) or dehydroepiandrosterone (DHEA). […]

[2] = biological target: T1, glucose-6-phosphate dehydrogenase (G6PDH); test: G6PDH activity after pretreatment of intact airway smooth muscle monolayers; type: cell-based; settings: for G6PDH activity of subsequent cell lysates: monolayers pretreated with concentrations that inhibited cell proliferation, result in words
Procedure: as §1
To determine if DHEA or its analogs induced programmed cell death, confluent cultures in 6 well plastic plates were treated with 50 or 250 µM DHEA, 10 or 50 µM 16α-BrEA, or vehicle (25 µl DMSO). After 2 hours cells were washed twice with DPBS and scraped on ice into 1.5 ml microfuge tubes and centrifuged 250 g for 5 minutes at 4°C. The cell pellet was gently resuspended in 30 µl DPBS and lysed by addition of 30 µl lysis buffer (80 mM EDTA, 1.6% [wt/vol] sodium lauryl sarcosinate and 5 mg/ml proteinase K in 200 mM Tris-HCl buffer, pH 8.0). Lysate was incubated at 50°C for 1.5 hours. RNAse A (0.2 mg/ml) was added and the lysate was incubated for another 30 minutes at 37°C. DNA bands were separated along with a DNA ladder standard on a 1% agarose gel at 60 V for 1 hour, intercalated with ethidium bromide, and visualized and photographed under ultraviolet light. Measurement of Glucose-6-Phosphate Dehydrogenase Activity. Cultures were washed three times with cold DPBS on ice, scraped into ice cold buffer (10 mM MgCl2 in 50 mM Tris, pH 8.0) and sonicated on ice. G6PDH activity was then assayed by the method of Jones and Andrews (Jones, J.T., and Andrews, S.G., "Glucose-6-phosphate dehydrogenase activity in somatic and germinal cells of the mouse testis," J. Reproduc. Fertility, 54, 357-362 (1978)) in a reaction mixture containing 50-200 µl cell lysate, 20 µl of 10 mM β-nicotinamide adenine dinucleotide phosphate (NADP) and 20 µl of 10 mM D-glucose-6-phosphate (G6P) in a total volume of 1 ml buffer (10 mM MgCl2 in 50 mM Tris, pH 8.0). The reaction was initiated by addition of G6P. The linear increase in absorbance at 340 nm was monitored at 25°C for 300 seconds. Activity was expressed as units/mg protein, where 1.0 unit will oxidase 1.0 µmole of G6P to 6-phospho-D-gluconate per min in the presence of NADP. Protein was measured using the BCA protein assay (Rockford, IL). Immunoblot Assay for p21^ras and c-fos Proteins. For measurement of p21^ras, cells were washed twice-with cold DPBS and swelled on ice for 15 minutes with 500 µl cold lysis buffer (10 mM HEPES, 1 mM MgCl2, 1 mM EDTA, 1 µM pepstatin, 2 µg/ml aprotinin, and 1 mM phenylmethylsulfonyl fluoride). See Schulz and Nyce (1991), supra. Cells were then scraped into 1.5 ml polypropylene tubes, homogenized and clarified by centrifugation at 3,000 g for 1 minute at 4°C. The postnuclear supernatant was centrifuged 100,000 g for 30 minutes at 4°C. Supernatants were collected and pelleted membranes were resuspended in detergent buffer (1% Triton X-100, 1% sodium deoxycholate, 0.1% SDS, 150 mM NaCl, 1 µM pepstatin, 2 µg/ml aprotinin and 1 mM phenylmethylsulfonyl fluoride in 25 mM Tris, pH 7.4). Aliquots of supernatant and membrane fractions were removed for protein determination using the BCA protein assay. Bromophenol blue and β-mercaptoethanol were added to the remaining sample to a final concentration of 0.002% (wt/vol) and 5% (vol/vol), respectively. Lysates were then boiled for 5 minutes at 100°C and stored at -80°C until immunoblotting was performed.
Activity is expressed as % inhibition of DMSO vehicle-treated controls by 16α-bromoepiandrosterone (BrEA) or dehydroepiandrosterone (DHEA). DMSO alone caused no reduction in G6PDH activity under assay conditions. Each bar represents the mean of at least 3 experiments. Methods are described in the text. […]

T1 sequence (P05370 whole entry): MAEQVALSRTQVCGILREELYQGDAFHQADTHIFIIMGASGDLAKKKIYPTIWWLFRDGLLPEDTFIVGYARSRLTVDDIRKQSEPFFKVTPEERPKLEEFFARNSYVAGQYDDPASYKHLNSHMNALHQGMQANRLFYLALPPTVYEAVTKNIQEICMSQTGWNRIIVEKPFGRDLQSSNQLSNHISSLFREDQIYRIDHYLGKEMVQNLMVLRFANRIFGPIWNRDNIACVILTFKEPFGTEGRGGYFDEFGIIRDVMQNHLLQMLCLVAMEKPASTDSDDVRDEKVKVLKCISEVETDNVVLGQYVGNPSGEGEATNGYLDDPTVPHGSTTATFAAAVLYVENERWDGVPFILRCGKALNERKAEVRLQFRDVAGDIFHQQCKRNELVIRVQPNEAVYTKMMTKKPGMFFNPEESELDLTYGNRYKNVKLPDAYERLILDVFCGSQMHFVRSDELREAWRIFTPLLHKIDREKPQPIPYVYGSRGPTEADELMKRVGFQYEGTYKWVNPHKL

Work on `C[C@]12CC[C@H](O)CC1=CC[C@@H]1[C@@H]2CC[C@]2(C)C(=O)CC[C@@H]12` [DHEA, dehydroepiandrosterone] yielded an inhibition at 25 µM [1] of 77 ± 3%, an inhibition at 50 µM [1] of 82 ± 3% and an inhibition at 100 µM ([1]; 100 µM) of 93 ± 3%. The inhibition at 25 µM ([2]; 25 µM, Intact Airway Smooth Muscle monolayers pretreated 1 hour before harvest, read-out: PERCENT INHIBITION OF GLUCOSE 6-PHOSPHATE DEHYDROGENASE ACTIVITY) was 0%, the inhibition at 50 µM ([2]; 50 µM, Intact Airway Smooth Muscle monolayers pretreated 1 hour before harvest, read-out: PERCENT INHIBITION OF GLUCOSE 6-PHOSPHATE DEHYDROGENASE ACTIVITY) was 0% and the inhibition at 100 µM ([2]; 100 µM, Intact Airway Smooth Muscle monolayers pretreated 1 hour before harvest, read-out: PERCENT INHIBITION OF GLUCOSE 6-PHOSPHATE DEHYDROGENASE ACTIVITY) was 6 ± 7%. For the same compound, the inhibition at 250 µM ([2]; 250 µM, Intact Airway Smooth Muscle monolayers pretreated 1 hour before harvest, read-out: PERCENT INHIBITION OF GLUCOSE 6-PHOSPHATE DEHYDROGENASE ACTIVITY) was 24 ± 9% and the “G6PDH activity of subsequent cell lysates” value [2] was “not significantly reduced”.
With `C[C@]12CC[C@H](O)C[C@@H]1CC[C@@H]1[C@@H]2CC[C@]2(C)C(=O)[C@H](Br)C[C@@H]12` [16α-BrEA, 16α-bromoepiandrosterone] the inhibition at 25 µM [1] was 49%, the inhibition at 50 µM [1] was 71 ± 8% and the “G6PDH activity of subsequent cell lysates” value [2] was “not significantly reduced”.
